This note sets out measurements from patent publication US12031171B2, “Fatty acid esters against infections in fermentations” (PURAC BIOCHEM BV, priority 2016, dated 2024).

Assay [1] deals with Clostridium perfringens ATCC 13124. In kind it is cell-based. The conditions noted are these: brain heart infusion broth, pH 6.0, 30° C., 0% oxygen.
The subject of assay [2] is Clostridium pasteurianum JEG2. Description: Mixed culture fermentation of Escherichia coli TG128 with Clostridium pasteurianum JEG2 (7 litre fermenters). The assay is classed as cell-based. The conditions noted are these: Fermenter 3, mixed culture.
Where [3] appears, read: 0.05% (w/v) added, 25-35 hours, pH 6.5, 37° C.

Regarding `CCCCCCCCCC(=O)OC(C)C(=O)O` (stereo not shown) [Decanoyl-lactylate], in assay [1], the MIC value was 0.04 % (w/v).

In the case of `CCCCCCCCCCCC(=O)OC(C)C(=O)O` (stereo not shown) [Dodecanoyl-lactylate], in assay [1], the MIC value is given as 0.002 % (w/v).

Regarding `CCCCCCCCCCCCCCCC(=O)OC(C)C(=O)O` (stereo not shown) [Hexadecanoyl-lactylate], the MIC value in assay [1] is 0.002 % (w/v).

Turning to `CCCCCCCC(=O)OC(C)C(=O)[O-].[Na+]` (stereo not shown) [Octanoyl-lactylate], in assay [1], the MIC value is recorded as 0.05 % (w/v).

In the case of `CCCCCCCCC=CCCCCCCCC(=O)OC(C)C(=O)O` (stereo not shown) [Olacta, Octadecenoyl-lactylate], the MIC value in assay [1] is 0.02 % (w/v).

As to `CCCCCCCCCCCCCCOS(=O)(=O)[O-].[Na+]` [Sodium tetradecyl sulfate, reference compound], the MIC value in assay [1] was 0.001 % (w/v).

For `CCCCCCCCCCCCCC(=O)O` [Tetradecanoic acid, reference compound], the MIC value in assay [1] is >0.01 % (w/v).

Consider `CCCCCCCCCCCCCC(=O)OC(C)C(=O)O` (stereo not shown) [Tetradecanoyl-lactylate, tetradecanoyl-lactylate], for which the “results of Fermenter 3 compared with those at 0.05% (w/v)” value in assay [2] (0.025% (w/v) added) is on record as “Exactly the same results”. Besides, in assay [2] (0.05% (w/v) added), the “endospore bearing cells, microscopic examination of the culture broth” value is given as “no endospore bearing cells”; the “foam and putrid smell produced by the fermenter” value was “no foam or putrid smell”; the “impurity profile of fermentation broth compared with the Escherichia coli TG128 standard fermentation (Fermenter 1)” value is on record as “no difference in impurity profile”; the “performance of Fermenter 3 compared with Fermenter 1 (pure culture of Escherichia coli TG128)” value was “in every respect similar”. In assay [2] (setting [3]), the 2-hydroxy butyric acid was less than 0.1 g/L, the “% enantiomeric excess: (R − S)/(R + S)” value is 99.3%, the Acetic acid was 0.3 g/L and the Benzoic acid was less than 0.3 g/L. In assay [2] (setting [3]), this molecule gave a Butyric acid of 0.1 g/L, a Citric acid of less than 0.5 g/L, an Ethanol of 0.08 g/L and a Formic acid of less than 0.2 g/L. In assay [2] (setting [3]), this molecule returned a Fumaric acid of less than 0.2 g/L, a Glycolic acid of less than 0.5 g/L, a Maleic acid of less than 0.2 g/L and a Malic acid of less than 0.5 g/L. In assay [2] (setting [3]), this molecule had an Oxalic acid of less than 0.2 g/L, a Propionic acid of less than 0.1 g/L, a Pyruvic acid of less than 0.1 g/L and a R-lactate of 81.8 g/L. In addition, in assay [2] (setting [3]), the S-lactate is 0.3 g/L, the Sorbic acid is less than 0.1 g/L, the Succinic acid was less than 0.1 g/L and the glucose worked out at 2.3 g/L. Besides, the “% enantiomeric excess: (R − S)/(R + S)” value in assay [2] (0.05% (w/v) added, 25-35 hours, pH 6.5, 37° C., listed as tetradacanoyl-lactylate) is listed as roughly 100%. The MIC value in assay [1] is on record as 0.001 % (w/v).
